In paper PMC4784888, “Activity Based High-Throughput Screening for Novel O-GlcNAc Transferase Substrates Using a Dynamic Peptide Microarray” (PLoS ONE, 2016):

Key:
Type in all cases: biochemical, human
m-OGT [1] = assay: O-GlcNAcylation on kinase substrate peptide microarray, m-OGT; conditions: bacterial lysate containing m-OGT (7 μg/μL), 1 mM UDP-GlcNAc, 50 mM Tris-HCl pH 7.5, 30°C, FITC antibody fluorescence, corrected for signal without UDP-GlcNAc
Method: (§1) Plasmids encoding s-OGT, m-OGT, and nc-OGT are generous gifts from John A. Hanover (National Institute of Health, USA). OGT overexpression was carried out as previously described. All the plasmids were transformed into E.coli BL21 (DE3) competent cells to produce a cell lysate containing OGT for use or for further purification. Briefly, inoculated a single colony into 50 ml of LB broth media containing 50 μg/ml ampicillin and cells were grown overnight at 37°C with vigorous shaking. 50 mL of the start culture was added into 1L LB broth media containing 50 μg/mL ampicillin and it was incubated with shaking at 200 rpm at 37°C until A600 reached 0.4–0.6. After the culture was cooled to room temperature, 0.5 mM IPTG was added into the culture to induce protein expression. After 16 hours, the cells were collected by centrifugation for 10 min at 4000 RPM at 4°C. The pellets were lysed in lysis buffer containing 20 mM Tris-HCl, pH 7.5, 1 mg/mL lysome, 0.1% triton x-100 and complete mini EDTA-free protease inhibitor cocktail on ice for 10 min and the lysate was sonicated until the DNA was completely sheared. After centrifugation for 10 min at 12000 rpm at 4°C, the supernatant was carefully transferred into a clean tube and was ready for the array assay or for further purification. Protein expression was determined by coomassie blue staining and western blotting using an anti-OGT antibody.
(§2) Peptide O-GlcNAcylation was assessed using PamChip 4 microarray chips with a PamStation 12 instrument (Pamgene international, The Netherlands). The OGT enzyme reaction was prepared essentially as described[26] with minor modifications. Briefly, before addition of the enzyme reaction, the microarray was blocked with blocking buffer (1% BSA in TBS). After 30 cycles (2 cycles/min) blocking, the blocking buffer was aspirated and the microarray was incubated with 40 μL of the enzyme reaction containing OGT (lysate or purified), OGT reaction buffer (50 mM Tris—HCl, pH 7.5;1 mM DTT;12.5 mM MgCl2), a 1:1 pre-incubated mixture of anti-O-GlcNAc and FITC conjugated secondary antibody, and the sugar donor UDP-GlcNAc or water as a control for 480 cycles (2 cycles/min) at 30°C. The microarray was run in parallel by pumping the reaction up and down through the porous membrane at every cycle and a tiff image was obtained at every 20 cycles by a CCD camera inside the PamStation. O-GlcNAcylation of each peptide was detected by a fluorescent signal which was produced by an FITC conjugated antibody bound to the O-GlcNAc moiety on the peptide.
(§3) Image analysis was performed using BioNavigator 6 software (Pamgene international, The Netherlands). Briefly, each image was quantified by automated array grid finding and subsequent quantification of signal and local background for each individual spot. In this work, the signal median-minus-background value was used as the quantitative parameter for the O-GlcNAcylation of the peptide.
(§4) Dynamic peptide microarray (PamChip) technology has been successfully and widely used for kinase activities profiling in the last decade. In the present work, we describe, for the first time, the utility of this peptide microarray format for the identification of human OGT activity. Due to the fact that O-GlcNAcylation and phosphorylation may occur at the same or proximal amino acids on the same protein [9], a peptide microarray of 144 peptides derived from different kinase substrates (S1 Appendix) was selected for an initial test. […] O-GlcNAcylation of peptides in each individual spot was detected by a fluorescent signal produced by the FITC labelled antibody recognizing the O-GlcNAcylated amino acids of converted peptides. Kinetic activity was measured through scanning the signal at regular intervals.
(§5) Fig 2 Identification of human OGT substrates from a kinase substrate and nuclear hormone receptor interaction peptide microarray. […]

s-OGT [2] = assay: O-GlcNAcylation on kinase substrate peptide microarray, s-OGT; conditions: bacterial lysate containing s-OGT (7 μg/μL), 1 mM UDP-GlcNAc, 50 mM Tris-HCl pH 7.5, 30°C, FITC antibody fluorescence, corrected for signal without UDP-GlcNAc
Method: as §1, §2, §3, §4, §5

nc-OGT [3] = assay: O-GlcNAcylation on kinase substrate peptide microarray, nc-OGT; conditions: bacterial lysate containing nc-OGT (7 μg/μL), 1 mM UDP-GlcNAc, 50 mM Tris-HCl pH 7.5, 30°C, FITC antibody fluorescence, corrected for signal without UDP-GlcNAc
Method: as §1, §2, §3, §4, §5

m-OGT [4] = assay: O-GlcNAcylation on nuclear hormone receptor interaction peptide microarray, m-OGT; conditions: bacterial lysate containing m-OGT (7 μg/μL), 1 mM UDP-GlcNAc, 50 mM Tris-HCl pH 7.5, 30°C, FITC antibody fluorescence, corrected for signal without UDP-GlcNAc
Method: as §1, §2, §3, §4, §5

nc-OGT [5] = assay: O-GlcNAcylation on nuclear hormone receptor interaction peptide microarray, nc-OGT; conditions: bacterial lysate containing nc-OGT (7 μg/μL), 1 mM UDP-GlcNAc, 50 mM Tris-HCl pH 7.5, 30°C, FITC antibody fluorescence, corrected for signal without UDP-GlcNAc
Method: as §1, §2, §3, §4, §5

s-OGT [6] = assay: O-GlcNAcylation on nuclear hormone receptor interaction peptide microarray, s-OGT; conditions: bacterial lysate containing s-OGT (7 μg/μL), 1 mM UDP-GlcNAc, 50 mM Tris-HCl pH 7.5, 30°C, FITC antibody fluorescence, corrected for signal without UDP-GlcNAc
Method: as §1, §2, §3, §4, §5

[7] = tested on: OGT (s-OGT, m-OGT, nc-OGT); assay: O-GlcNAcylation on nuclear hormone receptor interaction peptide microarray, three isoforms taken together; conditions: for O-GlcNAcylation by three isoforms: nuclear hormone receptor interaction microarray, bacterial lysates s-, m-, nc-OGT, 1 mM UDP-GlcNAc; for identification in microarray assay: nuclear receptor interaction peptide microarray
Method: as §1, §2, §3
Dynamic peptide microarray (PamChip) technology has been successfully and widely used for kinase activities profiling in the last decade. In the present work, we describe, for the first time, the utility of this peptide microarray format for the identification of human OGT activity. […] O-GlcNAcylation of peptides in each individual spot was detected by a fluorescent signal produced by the FITC labelled antibody recognizing the O-GlcNAcylated amino acids of converted peptides. Kinetic activity was measured through scanning the signal at regular intervals. […]

Row | Sequence | OGT isoforms activity, m (m-OGT [1]) | OGT isoforms activity, s (s-OGT [2]) | OGT isoforms activity, nc (nc-OGT [3]) | OGT isoforms activity, m (m-OGT [4]) | OGT isoforms activity, nc (nc-OGT [5]) | OGT isoforms activity, s (s-OGT [6]) | O-GlcNAcylation by three isoforms [7] | identification in microarray assay [7]
1 | QVEFRRLSISAES [KPB1_1011_1023, kinase substrate microarray peptide …] | N (otherwise negative (N)) | P (Signal greater than 5% of the highest signal was defined as positive (P)) | N (otherwise negative (N)) | – | – | – | – | –
2 | SPSQGAASRPAILYALLSSSLKA [NR0B2_9_31_C9S/C11S] | – | – | – | P (Signal greater than 5% of the highest signal was defined as positive) | N (otherwise negative) | N (otherwise negative) | – | –
3 | SQSTFNNPRPGQLGRLLPNQNLP [NCOA2_866_888] | – | – | – | P (Signal greater than 5% of the highest signal was defined as positive) | N (otherwise negative) | N (otherwise negative) | – | –
4 | HGEDFSKVSQNPILTSLLQITGNG [MED1_591_614] | – | – | – | N (otherwise negative) | P (Signal greater than 5% of the highest signal was defined as positive) | N (otherwise negative) | – | –
5 | GSDVHQDSIVLTYLEGLLMHQAA [NRIP1_8_30] | – | – | – | P (Signal greater than 5% of the highest signal was defined as positive) | N (otherwise negative) | N (otherwise negative) | – | –
6 | DSVRKGKQDSTLLASLLQSFSSR [NRIP1_121_143_P124R] | – | – | – | P (Signal greater than 5% of the highest signal was defined as positive) | N (otherwise negative) | N (otherwise negative) | – | –
7 | EGLRSRSTRMSTVS [KIF2C_105_118_S106G, kinase substrate microarray peptide …] | P (Signal greater than 5% of the highest signal was defined as positive (P)) | N (otherwise negative (N)) | N (otherwise negative (N)) | – | – | – | – | –
8 | TVAASPAASGAPTLSRLLEAGPT [BRD8_254_276] | – | – | – | P (Signal greater than 5% of the highest signal was defined as positive) | P (Signal greater than 5% of the highest signal was defined as positive) | P (Signal greater than 5% of the highest signal was defined as positive) | O-GlcNAcylation by three isoforms was observed | –
9 | GTGGLSAVSSGPRLRLLLLESVS [PELP1_20_42] | – | – | – | – | – | – | – | not identified in our microarray assay
10 | TTSPTAATTQNPVLSKLLMADQD [LCOR_40_62] | – | – | – | P (Signal greater than 5% of the highest signal was defined as positive) | N (otherwise negative) | N (otherwise negative) | – | –
11 | QFPLPKNLLAKVIQIATSSSTA [DHX30_241_262] | – | – | – | P (Signal greater than 5% of the highest signal was defined as positive) | N (otherwise negative) | N (otherwise negative) | – | –
12 | SDGDSKYSQTSHKLVQLLTTTAEQ [NCOA1_620_643] | – | – | – | – | – | – | – | not identified in our microarray assay
13 | SDTLPEVSAIPISLDGLLFPRPS [PRGR_42_64_C64S] | – | – | – | P (Signal greater than 5% of the highest signal was defined as positive) | N (otherwise negative) | P (Signal greater than 5% of the highest signal was defined as positive) | – | –
14 | PATSPKPSVASSQLALLLSSEAH [NRIP1_253_275_C263S] | – | – | – | P (Signal greater than 5% of the highest signal was defined as positive) | P (Signal greater than 5% of the highest signal was defined as positive) | N (otherwise negative) | – | –
15 | DNTPHTPTPFKNA [MYBB_513_525, kinase substrate microarray peptide …] | N (otherwise negative (N)) | P (Signal greater than 5% of the highest signal was defined as positive (P)) | N (otherwise negative (N)) | – | – | – | – | –
16 | GLGRSITSPTTLY [RBL-2_655_667, kinase substrate microarray peptide …] | P (Signal greater than 5% of the highest signal was defined as positive (P)) | P (Signal greater than 5% of the highest signal was defined as positive (P)) | P (Signal greater than 5% of the highest signal was defined as positive (P)) | – | – | – | – | –
17 | HGSQNRPLLRNSLDDLLGPPSNA [NCOA3_MOUSE_1029_1051] | – | – | – | N (otherwise negative) | P (Signal greater than 5% of the highest signal was defined as positive) | N (otherwise negative) | – | –
18 | KWTKRTLSETSSS [KCNB1_489_501, kinase substrate microarray peptide …] | N (otherwise negative (N)) | N (otherwise negative (N)) | P (Signal greater than 5% of the highest signal was defined as positive (P)) | – | – | – | – | –
19 | LVSPAMREAPTSLSQLLDNSGAP [NCOA6_1479_1501] | – | – | – | P (Signal greater than 5% of the highest signal was defined as positive) | P (Signal greater than 5% of the highest signal was defined as positive) | P (Signal greater than 5% of the highest signal was defined as positive) | O-GlcNAcylation by three isoforms was observed | –
20 | GQRNISTLSTIQKLPRLLVASSS [WIPI1_313_335_C318S] | – | – | – | P (Signal greater than 5% of the highest signal was defined as positive) | P (Signal greater than 5% of the highest signal was defined as positive) | P (Signal greater than 5% of the highest signal was defined as positive) | O-GlcNAcylation by three isoforms was observed | –
21 | ERSKTVTSFYNQS [BCKD_45_57, kinase substrate microarray peptide …] | N (otherwise negative (N)) | N (otherwise negative (N)) | P (Signal greater than 5% of the highest signal was defined as positive (P)) | – | – | – | – | –
